# From patent publication US9955676B2, “Transgenic model for delay-type hypersensitivity (DTH) and use thereof” (Macau University of Science and Technology, priority 2014, dated 2018)
# What was measured:
# [1] = system: IKK-β (wt) / NF-κB signaling; experiment: Western blotting of TNF-α-stimulated IKK-β−/− MEFs transfected with IKK-β wild-type; assay type: cell-based, mouse; details: DMY pretreatment 60 min, FIG. 6c
# Experimental: Western Blotting Analysis.
# IKK-β^−/− deficient mouse embryonic fibroblasts (MEFs) are provided as a gift by Prof. Michael Karin (University of California, San Diego). IKK-β^−/− deficient MEFs transfected with IKK-β wild-type or mutant C46A constructs are pretreated with DMY at 37° C. for 60 min, and then the cells are stimulated with TNF-α and harvested for western blotting analysis. The expressions of IκBα, p-p65^ser536, FLAG-IKK-β and actin are detected with their specific antibodies.
# [2] = system: CIA rats; experiment: Collagen-II induced arthritis (CIA) rat model; assay type: in vivo
# Experimental: Experimental arthritis induced by collagen-II in rats. CIA is induced in female Wistar rats. Dexamethasone (DEX, 0.1 mg/kg), methotrexate (MTX, 3.75 mg/kg, twice per week) and indomethacin (Indo, 1 mg/kg) are used as reference drugs.
# [3] = system: IKK-β+/+ mice; experiment: DNFB-induced delay-type hypersensitivity test with immunohistochemical staining, wild-type mice; assay type: in vivo, mouse; details: DNFB-induced DTH, FIG. 7
# Description: (§1) Delay-Type Hypersensitivity Test and Immunohistochemical Staining.
# (§2) The in vivo anti-inflammatory effect of DMY on CD4^+ and CD8^+ lymphocytes is examined by administering this inhibitor to the mouse with delay-type hypersensitivity (DTH) based on the previously described method. The ear samples of DTH mice are fixed in 4% neutral-buffered formalin. Each sample is cut longitudinally into half and embedded in paraffin (Panreac), and then cut into 5 μm sections. Immunohistochemical staining is performed on slides.
# [4] = target: T1, IKK-β C46A mutant (Homo sapiens, UniProt O14920, C46A); experiment: IKK-β kinase assay (K-LISA IKKβ-Inhibitor Screening Kit) on cysteine mutants; assay type: biochemical; details: FIG. 6a
# T1 construct: FLAG; made in house
# T1 sequence (O14920 1-756 C46A): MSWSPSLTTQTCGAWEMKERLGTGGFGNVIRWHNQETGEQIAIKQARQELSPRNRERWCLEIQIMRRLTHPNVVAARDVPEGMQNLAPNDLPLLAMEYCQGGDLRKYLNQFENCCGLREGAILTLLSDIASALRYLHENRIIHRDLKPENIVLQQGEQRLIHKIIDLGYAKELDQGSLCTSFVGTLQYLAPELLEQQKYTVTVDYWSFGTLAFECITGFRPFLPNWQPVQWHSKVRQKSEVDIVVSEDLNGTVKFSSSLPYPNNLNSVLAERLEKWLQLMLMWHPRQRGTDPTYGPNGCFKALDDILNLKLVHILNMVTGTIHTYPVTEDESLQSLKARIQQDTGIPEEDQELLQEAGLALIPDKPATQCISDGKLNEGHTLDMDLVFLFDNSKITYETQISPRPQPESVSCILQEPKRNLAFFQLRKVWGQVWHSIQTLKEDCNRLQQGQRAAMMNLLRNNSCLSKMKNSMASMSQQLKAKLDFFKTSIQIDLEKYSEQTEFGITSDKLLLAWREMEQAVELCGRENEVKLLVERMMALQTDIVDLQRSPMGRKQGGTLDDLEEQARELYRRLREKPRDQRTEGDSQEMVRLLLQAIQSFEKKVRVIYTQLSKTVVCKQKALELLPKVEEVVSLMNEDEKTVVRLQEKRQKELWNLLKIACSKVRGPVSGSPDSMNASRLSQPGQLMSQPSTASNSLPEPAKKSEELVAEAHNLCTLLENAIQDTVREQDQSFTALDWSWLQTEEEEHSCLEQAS
# Experimental: IKK-β kinase assay is performed using a K-LISA™ IKKβ-Inhibitor Screening Kit (Calbiochem).
# To determine the specificity to which cysteine residue(s) on IKK-β for the inhibitory action of a well-known inhibitor, DMY, all other 15 single point mutation IKK-β constructs with cysteine (C) residues are replaced with alanine (A) by site-directed mutagenesis (FIG. 6a), except Cys-46.
# [5] = system: IKK-β C46A mutant mice; experiment: DNFB-induced delay-type hypersensitivity test with immunohistochemical staining, mutant mice; assay type: in vivo, mouse; details: homozygous IKK-β C46A mutant mice
# Description: as §1, §2
structure (smiles),measurement,setting,value
"O=C1c2c(O)cc(O)cc2O[C@H](c2cc(O)c(O)c(O)c2)[C@H]1O [DMY, dihydromyricetin]",TNF-α-induced phosphorylation of NF-κB p65 and degradation of IκBα,[1],suppression of TNF-α-induced phosphorylation of NF-κB p65 and degradation of IκBα
same,NF-κB signaling in the knee synovial tissues,"[2]; CIA rats, FIG. 8c",significantly suppress
same,organ indexes,"[2]; CIA rats, FIG. 8d",no adverse impairment
same,body weight,"[2]; CIA rats, compared to vehicle- and reference reagents-treated animals, FIG. 8e",prevent loss of body weight
same,hind paw volumes,"[2]; compared to vehicle-treated CIA rats, FIG. 8a",significantly decrease
same,arthritic scores,"[2]; compared to vehicle-treated CIA rats, FIG. 8b",significantly decrease
same,number of CD8+ lymphocytes in ear sections,[3],gradually decreases
same,kinase inhibitory effect (phosphorylation of IκBα),[4],abrogates the kinase inhibitory effect
same,anti-inflammatory potency in DTH responses,[5],diminished anti-inflammatory potency
